In ChEMBL document CHEMBL1201862, “PubChem BioAssay data set” (2004):
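Interpolation was linear, between the two tested concentrations surrounding the appropriate level; five concentrations were tested over 48 hours in 96-well plates. GI50 = concentration required for 50% inhibition of growth.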 Activity calls are given as the source filed them. Rule as the data show it: active = GI50 up to about 1.1 µM and inactive = higher.

How the values were obtained:
Experiment in all cases: NCI-60 cell line screen, 48 h
COLO 205 = test system: COLO 205
M14 = test system: M14
SK-MEL-2 = test system: SK-MEL-2
SF-268 = test system: SF-268
T47D = test system: T47D
SK-OV-3 = test system: SK-OV-3
SK-MEL-28 = test system: SK-MEL-28
786-0 = test system: 786-0
UACC-62 = test system: UACC-62
A549 = test system: A549
RPMI-8226 = test system: RPMI-8226
OVCAR-4 = test system: OVCAR-4
U-251 = test system: U-251
SF-295 = test system: SF-295
Malme-3M = test system: Malme-3M
MDA-MB-435 = test system: MDA-MB-435
SNB-19 = test system: SNB-19
EKVX = test system: EKVX
OVCAR-8 = test system: OVCAR-8
HOP-62 = test system: HOP-62
HOP-92 = test system: HOP-92
SN12C = test system: SN12C
MDA-N = test system: MDA-N
RXF 393 = test system: RXF 393
UACC-257 = test system: UACC-257
SW-620 = test system: SW-620
SK-MEL-5 = test system: SK-MEL-5
SR = test system: SR
Hs-578T = test system: Hs-578T
K562 = test system: K562
HCT-116 = test system: HCT-116
MOLT-4 = test system: MOLT-4
KM12 = test system: KM12
MDA-MB-231 = test system: MDA-MB-231
HCC 2998 = test system: HCC 2998
NCI/ADR-RES = test system: NCI/ADR-RES
HT-29 = test system: HT-29
NCI-H522 = test system: NCI-H522
NCI-H226 = test system: NCI-H226
UO-31 = test system: UO-31
CCRF-CEM = test system: CCRF-CEM
LOX IMVI = test system: LOX IMVI
DU-145 = test system: DU-145
OVCAR-5 = test system: OVCAR-5
ACHN = test system: ACHN
PC-3 = test system: PC-3
MCF7 = test system: MCF7
IGROV-1 = test system: IGROV-1
HL-60 = test system: HL-60
SF-539 = test system: SF-539
NCI-H23 = test system: NCI-H23
OVCAR-3 = test system: OVCAR-3
BT-549 = test system: BT-549
TK-10 = test system: TK-10
CAKI-1 = test system: CAKI-1
HCT-15 = test system: HCT-15
NCI-H460 = test system: NCI-H460

Measured: GI50

O=c1cc(-c2ccccc2)[nH]c2ccc(N3CCCCC3)cc12
inactive: T47D > 100000 nM | OVCAR-4 > 100000 nM | Malme-3M > 100000 nM | EKVX > 100000 nM | UACC-257 42600 nM | UO-31 > 10000 nM | OVCAR-5 4350 nM | BT-549 40900 nM
active: COLO 205 17 nM | M14 16.6 nM | SK-MEL-2 47.6 nM | SF-268 228 nM | SK-OV-3 36.8 nM | SK-MEL-28 26.7 nM | 786-0 36.4 nM | UACC-62 < 10 nM | A549 48.8 nM | RPMI-8226 33.3 nM | U-251 17.1 nM | SF-295 < 11.7 nM | MDA-MB-435 < 10 nM | SNB-19 34.7 nM | OVCAR-8 46.2 nM | HOP-62 30.5 nM | HOP-92 < 10 nM | SN12C 37.3 nM | MDA-N < 10 nM | RXF 393 < 19.1 nM | SW-620 46.8 nM | SK-MEL-5 < 15.3 nM | SR 17.2 nM | Hs-578T < 15.2 nM | K562 < 12.9 nM | HCT-116 < 18.4 nM | MOLT-4 60.5 nM | KM12 14.2 nM | MDA-MB-231 50.1 nM | HCC 2998 < 22.4 nM | NCI/ADR-RES 20.4 nM | HT-29 56.6 nM | NCI-H522 13.3 nM | NCI-H226 19.3 nM | CCRF-CEM < 16.1 nM | LOX IMVI 46.5 nM | DU-145 46.8 nM | ACHN 48 nM | PC-3 29.7 nM | MCF7 42.8 nM | IGROV-1 50.6 nM | HL-60 < 12.6 nM | SF-539 < 15.9 nM | NCI-H23 23 nM | OVCAR-3 16.6 nM | TK-10 998 nM | CAKI-1 < 22.1 nM | NCI-H460 30.6 nM
32.9 nM: HCT-15
